Columns and labels:
Experiment in all cases: KiNativ profiling in H3255 cells
Type in all cases: cell-based, human
AurA = system: T1, AurA; conditions: 2.5 µM
T1 construct: purchased ActivX Biosciences (KiNativ)
Description: (§1) H3255 cells were plated with 6.5x10^6 per condition in fresh media in 15 cm plates and treated the 80% confluency for 2 hours with DMSO or 2.5 μM of ZNL-0056. To harvest cells, plates were washed 3 times with cold PBS, then collected by scraping into 4 mL of cold PBS containing protease and phosphatase inhibitors. Cells were pelleted by centrifugation at 1350 g at 4 ℃ for 5 minutes and immediately frozen in liquid nitrogen. The frozen samples were sent to ActivX Biosciences (La Jolla, CA) for the remainder of the KiNativ profiling experiment4. […]

AurB = system: T2, AurB; conditions: 2.5 µM; Lys1; SHFIVALKVLFK
T2 construct: purchased ActivX Biosciences (KiNativ)
Description: as §1

BRAF, RAF1 = conditions: 2.5 µM; Activation Loop; IGDFGLATVKSR
Description: as §1

CDK9 = system: T3, CDK9; conditions: 2.5 µM
T3 construct: purchased ActivX Biosciences (KiNativ)
Description: as §1

CK1a = system: T4, CK1a; conditions: 2.5 µM; Lys2; DIKPDNFLMGIGR
T4 construct: purchased ActivX Biosciences (KiNativ)
Description: as §1

CRK7 = system: T5, CRK7; conditions: 2.5 µM; Lys2; DIKCSNILLNNSGQIK
T5 construct: purchased ActivX Biosciences (KiNativ)
Description: as §1

CaMK1d = system: T6, CaMK1d; conditions: 2.5 µM
T6 construct: purchased ActivX Biosciences (KiNativ)
Description: as §1

Erk2 = system: T7, Erk2; conditions: 2.5 µM; Lys2; DLKPSNLLLNTTCDLK
T7 construct: purchased ActivX Biosciences (KiNativ)
Description: as §1

FAM20B = system: T8, FAM20B; conditions: 2.5 µM; ATP; ETEPACADGDIMEGSVTLWLPDVWPLQKHR
T8 construct: purchased ActivX Biosciences (KiNativ)
Description: as §1

FYN, SRC, YES = conditions: 2.5 µM; Activation Loop; QGAKFPIKWTAPEAALYGR
Description: as §1

GCN2 domain2 = system: T9, GCN2 domain2; conditions: 2.5 µM
T9 construct: GCN2 domain2; purchased ActivX Biosciences (KiNativ)
Description: as §1

GSK3B = system: T10, GSK3B; conditions: 2.5 µM; Lys2; DIKPQNLLLDPDTAVLK
T10 construct: purchased ActivX Biosciences (KiNativ)
Description: as §1

LOK = system: T11, LOK; conditions: 2.5 µM; Lys2; DLKAGNVLMTLEGDIR
T11 construct: purchased ActivX Biosciences (KiNativ)
Description: as §1

MAP2K1 = system: T12, MAP2K1; conditions: 2.5 µM; Lys2; IMHRDVKPSNILVNSR
T12 construct: purchased ActivX Biosciences (KiNativ)
Description: as §1

MAP2K3 = system: T13, MAP2K3; conditions: 2.5 µM
T13 construct: purchased ActivX Biosciences (KiNativ)
Description: as §1

MAP2K4 = system: T14, MAP2K4; conditions: 2.5 µM
T14 construct: purchased ActivX Biosciences (KiNativ)
Description: as §1

MAP4K5 = system: T15, MAP4K5; conditions: 2.5 µM
T15 construct: purchased ActivX Biosciences (KiNativ)
Description: as §1

MAPKAPK2, MAPKAPK3 = conditions: 2.5 µM; Lys2; DVKPENLLYTSK
Description: as §1

MELK = system: T16, MELK; conditions: 2.5 µM; Lys2; DLKPENLLFDEYHK
T16 construct: purchased ActivX Biosciences (KiNativ)
Description: as §1

NDR1 = system: T17, NDR1; conditions: 2.5 µM
T17 construct: purchased ActivX Biosciences (KiNativ)
Description: as §1

NEK1 = system: T18, NEK1; conditions: 2.5 µM; Lys2; DIKSQNIFLTK
T18 construct: purchased ActivX Biosciences (KiNativ)
Description: as §1

NEK4 = system: T19, NEK4; conditions: 2.5 µM; Lys2; DLKTQNVFLTR
T19 construct: purchased ActivX Biosciences (KiNativ)
Description: as §1

NEK7 = system: T20, NEK7; conditions: 2.5 µM; Lys1; AACLLDGVPVALKK
T20 construct: purchased ActivX Biosciences (KiNativ)
Description: as §1

PEK = system: T21, PEK; conditions: 2.5 µM; Lys2; DLKPSNIFFTMDDVVK
T21 construct: purchased ActivX Biosciences (KiNativ)
Description: as §1

PI4K2B = system: T22, PI4K2B; conditions: 2.5 µM; ATP; SEEPYGQLNPKWTK
T22 construct: purchased ActivX Biosciences (KiNativ)
Description: as §1

PIK3C3 = system: T23, PIK3C3; conditions: 2.5 µM; ATP; TEDGGKYPVIFKHGDDLRQDQLILQIISLMDK
T23 construct: purchased ActivX Biosciences (KiNativ)
Description: as §1

RSK3 domain1 = system: T24, RSK3 domain1; conditions: 2.5 µM; Lys2; DLKPENILLDEEGHIKITDFGLSK
T24 construct: RSK3 domain1; purchased ActivX Biosciences (KiNativ)
Description: as §1

SGK = system: T25, SGK; conditions: 2.5 µM
T25 construct: purchased ActivX Biosciences (KiNativ)
Description: as §1

SRPK2 = system: T26, SRPK2; conditions: 2.5 µM; Lys2; IIHTDIKPENILMCVDDAYVR
T26 construct: purchased ActivX Biosciences (KiNativ)
Description: as §1

TLK2 = system: T27, TLK2; conditions: 2.5 µM
T27 construct: purchased ActivX Biosciences (KiNativ)
Description: as §1

TNK1 = system: T28, TNK1; conditions: 2.5 µM; Lys1; SVPVAVKSLR
T28 construct: purchased ActivX Biosciences (KiNativ)
Description: as §1

Wnk1, Wnk2, Wnk3 = conditions: 2.5 µM; Lys2; DLKCDNIFITGPTGSVK
Description: as §1

[1] = Activation Loop, MCDFGISGYLVDSVAKTMDAGCKPYMAPER
[2] = Lys2, YLNEIKPPIIHYDLKPGNILLVNGTACGEIK

Compound C=CC(=O)Nc1cc(C(=O)Nc2nc3cccc(C)c3n2[C@@H]2CCCCN(C(=O)C=C)C2)cs1 [ZNL-0056] has an Inhibition (AurA; Lys1, FILALKVLFK) of -0.0337%, an Inhibition (AurA; Lys2, DIKPENLLLGSAGELK) of -15.7% and an Inhibition (AurB) of 14.4%. It also gave an Inhibition (BRAF, RAF1) of -19.4%, an Inhibition (CDK9; ATP Loop, IGQGTFGEVFKAR) of -9.9% and an Inhibition (CDK9; Lys2, DMKAANVLITR) of 16.6%. The Inhibition (CK1a) was 10.2%, the Inhibition (CRK7) was -9.2% and the Inhibition (CaMK1d; Lys1, LFAVKCIPK) was 11.3%. It also gave an Inhibition (CaMK1d; Lys2, DLKPENLLYYSQDEESK) of 2.0%, an Inhibition (Erk2) of -24.2% and an Inhibition (FAM20B) of -17.9%. It also gave an Inhibition (FYN, SRC, YES) of 1.6%, an Inhibition (GCN2 domain2; Lys1, LDGCCYAVKR) of 0.0617% and an Inhibition (GCN2 domain2; Lys2, DLKPVNIFLDSDDHVK) of 5.5%. It also gave an Inhibition (GSK3B) of -4.3%, an Inhibition (LOK) of -15.4% and an Inhibition (MAP2K1) of -10.3%. For the same compound, the Inhibition (MAP2K3; [1]) was 11.1%, the Inhibition (MAP2K3; Lys2, DVKPSNVLINK) was -14.4% and the Inhibition (MAP2K4; Lys1, MVHKPSGQIMAVKR) was 5.7%. It also gave an Inhibition (MAP2K4; Lys2, DIKPSNILLDR) of 2.6%, an Inhibition (MAP4K5; Lys1, NVHTGELAAVKIIK) of -3.7% and an Inhibition (MAP4K5; Lys2, DIKGANILLTDHGDVK) of 15.2%. It also gave an Inhibition (MAPKAPK2, MAPKAPK3) of -7.9%, an Inhibition (MELK) of 23.0% and an Inhibition (NDR1; Lys1, DTGHVYAMKILR) of 6.1%. The Inhibition (NDR1; Lys2, DIKPDNLLLDSK) was 5.7%, the Inhibition (NEK1) was -5.2% and the Inhibition (NEK4) was 7.6%. For the same compound, the Inhibition (NEK7) was -9.3%, the Inhibition (PEK) was -15.1% and the Inhibition (PI4K2B) was -26.7%. For the same compound, the Inhibition (PIK3C3) was 6.7%, the Inhibition (RSK3 domain1) was 5.4% and the Inhibition (SGK; Lys1, HKAEEVFYAVKVLQK) was 12.6%. For the same compound, the Inhibition (SGK; Lys2, DLKPENILLDSQGHIVLTDFGLCK) was 1.7%, the Inhibition (SRPK2) was 10.0% and the Inhibition (TLK2; Lys1, YVAVKIHQLNK) was 15.3%. It also gave an Inhibition (TLK2; [2]) of 18.3%, an Inhibition (TNK1) of 8.0% and an Inhibition (Wnk1, Wnk2, Wnk3) of -34.6%.

For C=CC(=O)Nc1cc(Nc2nccc(-c3cn(C)c4ccccc34)n2)c(OC)cc1N(C)CCN(C)C [Osimertinib, osimertinib, reference compound], the Inhibition (AurA; Lys1, FILALKVLFK) was -3.3%, the Inhibition (AurA; Lys2, DIKPENLLLGSAGELK) was 2.6% and the Inhibition (AurB) was 9.9%. For the same compound, the Inhibition (BRAF, RAF1) was -21.1%, the Inhibition (CDK9; ATP Loop, IGQGTFGEVFKAR) was 12.0% and the Inhibition (CDK9; Lys2, DMKAANVLITR) was 22.6%. It also gave an Inhibition (CK1a) of 12.6%, an Inhibition (CRK7) of 31.9% and an Inhibition (CaMK1d; Lys1, LFAVKCIPK) of -14.3%. It also gave an Inhibition (CaMK1d; Lys2, DLKPENLLYYSQDEESK) of -8.2%, an Inhibition (Erk2) of 1.9% and an Inhibition (FAM20B) of 20.1%. It also gave an Inhibition (FYN, SRC, YES) of 7.8%, an Inhibition (GCN2 domain2; Lys1, LDGCCYAVKR) of 3.6% and an Inhibition (GCN2 domain2; Lys2, DLKPVNIFLDSDDHVK) of -25.4%. It also gave an Inhibition (GSK3B) of -0.3%, an Inhibition (LOK) of -8.3% and an Inhibition (MAP2K1) of -20.8%. For the same compound, the Inhibition (MAP2K3; [1]) was -14.4%, the Inhibition (MAP2K3; Lys2, DVKPSNVLINK) was -14.5% and the Inhibition (MAP2K4; Lys1, MVHKPSGQIMAVKR) was 12.0%. It also gave an Inhibition (MAP2K4; Lys2, DIKPSNILLDR) of 30.7%, an Inhibition (MAP4K5; Lys1, NVHTGELAAVKIIK) of -13.4% and an Inhibition (MAP4K5; Lys2, DIKGANILLTDHGDVK) of -6.7%. It also gave an Inhibition (MAPKAPK2, MAPKAPK3) of -28.4%, an Inhibition (MELK) of -15.3% and an Inhibition (NDR1; Lys1, DTGHVYAMKILR) of -7.9%. The Inhibition (NDR1; Lys2, DIKPDNLLLDSK) was 12.0%, the Inhibition (NEK1) was -34.8% and the Inhibition (NEK4) was -12.6%. The Inhibition (NEK7) was -12.2%, the Inhibition (PEK) was 7.8% and the Inhibition (PI4K2B) was 26.7%. For the same compound, the Inhibition (PIK3C3) was -7.5%, the Inhibition (RSK3 domain1) was -9.7% and the Inhibition (SGK; Lys1, HKAEEVFYAVKVLQK) was 13.2%. For the same compound, the Inhibition (SGK; Lys2, DLKPENILLDSQGHIVLTDFGLCK) was -15.1%, the Inhibition (SRPK2) was -2.3% and the Inhibition (TLK2; Lys1, YVAVKIHQLNK) was 25.0%. For the same compound, the Inhibition (TLK2; [2]) was 3.9%, the Inhibition (TNK1) was 58.2% and the Inhibition (Wnk1, Wnk2, Wnk3) was 11.9%.
